Test results as given in publication PMC7178511, “Antimicrobial Activity and DNA/BSA Binding Affinity of Polynuclear Silver(I) Complexes with 1,2-Bis(4-pyridyl)ethane/ethene as Bridging Ligands” (Bioinorganic Chemistry and Applications, 2020).
In brackets after ≈: the same amount, converted by molar mass.

How the values were obtained:
calf thymus DNA (ctDNA) = details: proven DNA intercalator; cited from earlier work
[1] = test system: Escherichia coli NCTC 9001; assay: Broth microdilution MIC, E. coli; assay type: cell-based; details: Escherichia coli, NCTC9001; E. coli NCTC 9001; Luria-Bertani broth, 24 h, 37°C; read-out: MIC
Protocol: (§1) Minimal inhibitory concentration (MIC) values against Pseudomonas aeruginosa PA01, Staphylococcus aureus ATCC 43300, Salmonella enteritidis ATCC 13075, Salmonella pullorum ATCC 13036, Escherichia coli NCTC 9001, Listeria monocytogenes NCTC 11994, and Enterococcus faecalis ATCC 29212 were determined in Luria-Bertani broth (10.0 g/L tryptone, 10.0 g/L NaCl, 5.0 g/L yeast extract, pH 7.2) in accordance with the standard broth microdilution assay for bacteria that grow aerobically, as recommended by the CLSI (Clinical and Laboratory Standards Institute, Methods for Dilution Antimicrobial Susceptibility Tests for Bacteria That Grow Aerobically; Approved Standard—Tenth Edition M07-A10. CLSI). The highest tested concentration was 500 μg/mL, and the inocula were 1^·10^6 cfu/mL.

[2] = test system: Pseudomonas aeruginosa PAO1; assay: Broth microdilution MIC, P. aeruginosa; assay type: cell-based; details: Pseudomonas aeruginosa; P. aeruginosa PAO1; Luria-Bertani broth, 24 h, 37°C; read-out: MIC
Protocol: as §1

[3] = test system: Listeria monocytogenes NCTC 11994; assay: Broth microdilution MIC, L. monocytogenes; assay type: cell-based; details: Listeria monocytogenes, NCTC11994; L. monocytogenes NCTC 11994; Luria-Bertani broth, 24 h, 37°C; read-out: MIC
Protocol: as §1

[4] = test system: Staphylococcus aureus ATCC 43300; assay: Broth microdilution MIC, S. aureus; assay type: cell-based; details: Staphylococcus aureus, ATCC43300; S. aureus ATCC 43300; Luria-Bertani broth, 24 h, 37°C; read-out: MIC
Protocol: as §1

[5] = test system: Enterococcus faecalis ATCC 29212; assay: Broth microdilution MIC, E. faecalis; assay type: cell-based; details: Enterococcus faecalis, ATCC29212; E. faecalis ATCC 29212; Luria-Bertani broth, 24 h, 37°C; read-out: MIC
Protocol: as §1

[6] = test system: Salmonella enteritidis ATCC 13075; assay: Broth microdilution MIC, S. enteritidis; assay type: cell-based; details: Salmonella enterica; S. enteritidis ATCC 13075; Luria-Bertani broth, 24 h, 37°C; read-out: MIC
Protocol: as §1

[7] = test system: Salmonella pullorum ATCC 13036; assay: Broth microdilution MIC, S. pullorum; assay type: cell-based; details: Salmonella enterica; S. pullorum ATCC 13036; Luria-Bertani broth, 24 h, 37°C; read-out: MIC
Protocol: as §1

C. albicans ATCC 10231 = assay: Broth microdilution MIC, C. albicans; assay type: cell-based, Candida albicans; details: Candida albicans, ATCC10231; C. albicans ATCC 10231; RPMI 1640 with 2% glucose; read-out: MIC
Protocol: (§2) Stock solutions of bpa, bpe, and silver(I) complexes 1–3 were prepared fresh in DMSO (50 mg/mL) and kept at 4°C prior to use. Susceptibility testing of Candida spp. (C. albicans ATCC 10231, C. krusei ATCC 6258, C. parapsilosis ATCC 22019, and C. glabrata ATCC 2001) was performed according to CLSI broth microdilution guidelines (Clinical and Laboratory Standards Institute, Reference Method for Broth Dilution Antifungal Susceptibility Testing of Yeasts—Third Edition: Approved Standard M27-A3; Clinical and Laboratory Standards Institute, Reference Method for Broth Dilution Antifungal Susceptibility Testing of Yeasts: Fourth Informational Supplement M27-S4), in RPMI 1640 medium (Roswell Park Memorial Institute medium) containing 2% glucose (w/v). The highest tested concentration was 500 μg/mL, and the inocula were 1^·\10^5 colony forming units (cfu)/mL.

[8] = test system: C. parapsilosis ATCC 22019; assay: Broth microdilution MIC, C. parapsilosis; assay type: cell-based, Candida parapsilosis; details: Lodderomyces parapsilosis, ATCC22019; C. parapsilosis ATCC 22019; RPMI 1640 with 2% glucose; read-out: MIC
Protocol: as §2

C. glabrata ATCC 2001 = assay: Broth microdilution MIC, C. glabrata; assay type: cell-based, Candida glabrata; details: Nakaseomyces glabratus, ATCC2001; C. glabrata ATCC 2001; RPMI 1640 with 2% glucose; read-out: MIC
Protocol: as §2

C. krusei ATCC 6258 = assay: Broth microdilution MIC, C. krusei; assay type: cell-based, Candida krusei; details: Pichia kudriavzevii, ATCC6258; C. krusei ATCC 6258; RPMI 1640 with 2% glucose; read-out: MIC
Protocol: as §2

[9] = MTT assay on a human fibroblast cell line; assay type: cell-based; details: human, MRC-5 human lung fibroblast cells, MRC-5, MTT, read-out: IC50 (cytotoxic effect on MRC-5 cells)
Protocol: Antiproliferative activity was tested by 3-(4,5-dimethylthiazol-2-yl)-2,5-diphenyltetrazolium bromide (MTT) assay on a human lung fibroblast cell line (MRC-5; ATCC collection). Pregrown (24 h) cell monolayers were incubated in the media containing the tested compounds at concentrations ranging from 5 to 500 μg/mL and the cell viability was measured after 48 h. RPMI 1640 medium supplemented with 100 μg/mL streptomycin, 100 U/mL penicillin, and 10% (v/v) FBS (all from Sigma, Munich, Germany) was used for the cultivation of MRC-5 cell line. Cells were maintained as a monolayer (1^·10^4 cells per well) in RPMI 1640 and grown in a humidified atmosphere of 95% air and 5% CO2 at 37°C. The extent of MTT reduction was measured spectrophotometrically at 540 nm using Tecan Infinite 200 Pro multiplate reader (Tecan Group Ltd, Männedorf, Switzerland), and the cell survival was expressed as a percentage of the control (untreated cells). Cytotoxicity was expressed as the concentration of the compound inhibiting cell growth by 50% (IC50).

[10] = test system: investigated bacterial strains; assay: Broth microdilution MIC, panel of bacterial strains; assay type: cell-based
Protocol: as §1

| Compound | Hypochromism (calf thymus DNA (ctDNA)) | MIC [1] | MIC [2] | MIC [3] | MIC [4] | MIC [5] | MIC [6] | MIC [7] | MIC (C. albicans ATCC 10231) | MIC [8] | MIC (C. glabrata ATCC 2001) | MIC (C. krusei ATCC 6258) | IC50 at 48 h [9] | MIC / antibacterial activity [10] |
| --- | --- | --- | --- | --- | --- | --- | --- | --- | --- | --- | --- | --- | --- | --- |
| C[n+]1c2ccccc2c(-c2c3ccccc3[n+](C)c3ccccc23)c2ccccc21 [lucigenin] | 50% | – | – | – | – | – | – | – | – | – | – | – | – | – |
| C(=Cc1ccncc1)c1ccncc1 [bpe, 1,2-bis(4-pyridyl)ethene, reference compound] | – | 250 µg/mL (≈ 1370 µM) | 500 µg/mL (≈ 2740 µM) | 100 µg/mL (≈ 549 µM) | > 500 µg/mL | > 500 µg/mL | > 500 µg/mL | > 500 µg/mL | 200 µg/mL (≈ 1100 µM) | 125 µg/mL (≈ 686 µM) | 100 µg/mL (≈ 549 µM) | 200 µg/mL (≈ 1100 µM) | 220 µg/mL (≈ 1210 µM) | not significant |
